Columns and labels:
[1] = biological target: T1, Fatty acid-binding protein, adipocyte (Homo sapiens, UniProt P15090); assay: Displacement of 1,8-ANS from His6-tagged FABP4 (unknown origin) expressed in Escherichia coli BL21(DE3) cells at 25 uM by fluorescence assay relative to control
Target sequence in this assay (P15090 2-132 limits assumed): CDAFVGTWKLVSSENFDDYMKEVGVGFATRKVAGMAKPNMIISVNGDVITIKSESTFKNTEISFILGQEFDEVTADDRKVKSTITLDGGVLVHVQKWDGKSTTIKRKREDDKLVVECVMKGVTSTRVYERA

[2] = biological target: T1, Fatty acid-binding protein, adipocyte; assay: Binding affinity to His6-tagged FABP4 (unknown origin) expressed in Escherichia coli BL21(DE3) cells assessed as change in melting temperature at 50 uM after 30 mins by SYPRO orange dye based thermal stability shift assay
Target sequence in this assay (P15090 2-132 limits assumed): as above

[3] = biological target: T1, Fatty acid-binding protein, adipocyte; assay: Displacement of 1,8-ANS from His6-tagged FABP4 (unknown origin) expressed in Escherichia coli BL21(DE3) cells by fluorescence assay; settings: read-out: Ki(app)
Target sequence in this assay (P15090 whole entry): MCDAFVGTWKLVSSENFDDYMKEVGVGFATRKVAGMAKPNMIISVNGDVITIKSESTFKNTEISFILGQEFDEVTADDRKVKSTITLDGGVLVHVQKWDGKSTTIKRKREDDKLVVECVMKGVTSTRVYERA

[4] = biological target: T2, Fatty acid-binding protein, adipocyte (Mus musculus) (UniProt P04117); assay: Inhibition of FABP4 in mouse RAW264.7 cells assessed as inhibition of LPS-induced IL-6 expression after 24 hrs by qPCR method; type: cell-based
T2 sequence (whole entry): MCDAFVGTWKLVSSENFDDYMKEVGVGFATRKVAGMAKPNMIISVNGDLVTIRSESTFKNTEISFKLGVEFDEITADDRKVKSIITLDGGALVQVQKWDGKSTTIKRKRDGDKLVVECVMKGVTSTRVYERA

[5] = biological target: T2, Fatty acid-binding protein, adipocyte (Mus musculus); assay: Inhibition of FABP4 in mouse RAW264.7 cells assessed as inhibition of LPS-induced TNFalpha production after 24 hrs by ELISA; type: cell-based
[6] = biological target: T2, Fatty acid-binding protein, adipocyte (Mus musculus); assay: Inhibition of FABP4 in mouse RAW264.7 cells assessed as inhibition of LPS-induced TNFalpha expression after 24 hrs by qPCR method; type: cell-based
Homo sapiens [7] = species: Homo sapiens; assay: Displacement of 1,8-ANS from His6-tagged FABP4 (unknown origin) R126A mutant expressed in Escherichia coli BL21(DE3) cells at 25 uM by fluorescence assay relative to control
Homo sapiens [8] = species: Homo sapiens; assay: Displacement of 1,8-ANS from His6-tagged FABP4 (unknown origin) R106A mutant expressed in Escherichia coli BL21(DE3) cells at 25 uM by fluorescence assay relative to control

Row | Structure (SMILES) | inhibition [1] [%] | ΔTm [2] [°C] | further results
1 | O=C(O)CCC(=O)Nc1sc2c(c1C(=O)Nc1cccc3ccccc13)CCCCC2 | 0.4 | 0.2 | –
2 | O=C(O)C1C2CC(Sc3ccccc3[N+](=O)[O-])C(Cl)C2c2cccc3c2N1CC1CC=CC31 (stereo not given) | 60.2 | 3.5 | Ki [3]: 3100 nM
3 | Cc1oc2ccc(NS(=O)(=O)c3ccccc3)cc2c1C(=O)O | 9.5 | 0.2 | –
4 | CCc1ccccc1NC(=O)C(OC(=O)c1ccccc1)C(OC(=O)c1ccccc1)C(=O)O (stereo not given) | 2.1 | 0.5 | –
5 | O=C(O)CC(Sc1nc2sc3c(c2c(=O)[nH]1)CCCC3)C(=O)O (stereo not given) | – | 0.1 | –
6 | CC(Sc1nc(-c2ccccc2)c(-c2ccccc2)[nH]1)C(=O)O (stereo not given) | – | 3.1 | –
7 | O=C(O)C(Cc1ccc(O)cc1)N1C(=O)c2c(Cl)c(Cl)c(Cl)c(Cl)c2C1=O (stereo not given) | 6 | 0.5 | –
8 | Cc1ccc(C)c(NC(=O)C2CCC(C)(C(=O)O)C2(C)C)c1 (stereo not given) | 0.5 | 0.1 | –
9 | Cc1ccc(C(C[N+](=O)[O-])c2c(-c3ccccc3C)n[nH]c2O)cc1 (stereo not given) | 5.8 | -3.7 | –
10 | COc1ccc(S(=O)(=O)Nc2ccccc2C(=O)O)c2ccccc12 | 20.3 | 1.2 | –
11 | Cc1oc2c(cc(NS(=O)(=O)c3ccc(Cl)cc3)c3ccccc32)c1C(=O)O | 30.2 | 2.8 | –
12 | O=C(O)COc1ccc(Br)cc1/C=C1\S/C(=N\c2ccc(Cl)cc2)NC1=O | – | -0.6 | –
13 | Cc1cc(C)c2c3c1C1C=CCC1CN3C(C(=O)O)C1CC=CC21 (stereo not given) | – | 5.8 | Ki [3]: 610 nM
14 | Cc1[nH]nc2c1C1(C(=O)N(C(C)C(=O)O)c3ccccc31)C(C#N)=C(N)O2 (stereo not given) | 6 | 0.1 | –
15 | CCCCCCCn1c(SCC(=O)O)nc2c1c(=O)[nH]c(=O)n2C | 13 | 2 | –
16 | CCc1c(-c2ccccc2)c(-c2ccccc2)nn1-c1ccccc1-c1cccc(OCC(=O)O)c1 | – | 10.6 | inhibition [4]: Dose-dependent effect; inhibition [5]: Dose-dependent effect; inhibition [6]: Dose-dependent effect
17 | Cc1ccc(/N=C2/NC(=O)/C(=C/c3cccn3-c3cccc(C(=O)O)c3)S2)cc1C | 36.8 | -9 | Ki [3]: 3600 nM
18 | CCCCC/C=C\C/C=C\CCCCCCCC(=O)O | – | 1.1 | –

Row | Structure (SMILES) | inhibition [1] [%] | ΔTm [2] [°C] | further results
19 | O=C(O)C1CCCCC1C(=O)Nc1ccccc1-c1ccccc1 (stereo not given) | 27.7 | 3.9 | –
20 | COc1cccc(-c2[nH]c3ccccc3c2C2c3ccccc3C(=O)N2CCC(=O)O)c1 (stereo not given) | 6.3 | 1.1 | –
21 | CN(CC(=O)O)c1ncc(-c2nnnn2-c2ccccc2)c(-c2ccccc2Cl)n1 | 0.5 | 0 | –
22 | Cc1cc(=O)n2c3c(cc(S(=O)(=O)NCc4ccc(C(=O)O)cc4)cc13)CC2 | – | 0.8 | –
23 | Cc1ccc(S(=O)(=O)NC(CC(=O)O)c2ccccc2)c(C)c1 (stereo not given) | -0.3 | 0.2 | –
24 | O=C(O)c1cccc2c1NC(c1ccccc1[N+](=O)[O-])C1CC(Sc3ccccc3[N+](=O)[O-])C(Cl)C21 (stereo not given) | 41.5 | -0.2 | Ki [3]: 5400 nM
25 | CCOc1cc(/C=C2/SC(=S)N(CCC(=O)O)C2=O)ccc1O | 63.2 | -1.8 | Ki [3]: 2500 nM
26 | O=C(O)C1C2CC=CC2c2cc(Cl)cc3c2N1CC1CC=CC31 (stereo not given) | – | 7.9 | Ki [3]: 690 nM
27 | O=c1cc(O)c2c(=O)n(N(c3ccccc3)c3ccccc3)c3c(c2o1)CCCC3 | 0.9 | 0.3 | –
28 | Cc1cc2c3c(c1)C1C=CCC1C(C(=O)O)N3CC1CC=CC21 (stereo not given) | – | 6.2 | inhibition [4]: Dose-dependent effect; inhibition [5]: Dose-dependent effect; inhibition [6]: Dose-dependent effect; Ki [3]: 380 nM
29 | CCCN1C2=C(C(=O)CC(C)(C)C2)C(c2cc(Cl)ccc2OCC(=O)O)C2=C1CC(C)(C)CC2=O | – | -0.2 | –
30 | COc1ccccc1-c1cc(C(F)(F)F)nc(S(=O)(=O)CCCC(=O)O)n1 | – | -9.1 | –
31 | C=C1C(N(CCc2ccc(OC)cc2)C(=O)CCC(=O)O)CC(=O)N1c1ccccc1 (stereo not given) | 1 | -0.1 | –
32 | O=C(O)C1C2CC=CC2c2c3c(cc4ccccc24)C2C=CCC2CN31 (stereo not given) | – | 7.5 | –
33 | COc1ccccc1N1CCN(C(=O)c2ccccc2NC(=O)C2CCCCC2C(=O)O)CC1 (stereo not given) | -5 | 0.1 | –
34 | O=C(O)CCSc1nc2ccccc2n1Cc1ccccc1 | 27.9 | 2.8 | –
35 | CCCCCCCC/C=C\CCCCCCCC(=O)O | 82.1 | 3.3 | inhibition (Homo sapiens [7]): 48.8%; inhibition (Homo sapiens [8]): 69.4%

The next lines start with results.

Row | inhibition [1] [%] | ΔTm [2] [°C] | Structure (SMILES) | further results
36 | – | 1.2 | COc1ccc(Cc2c(C)[nH]c3ccc(C(=O)O)cc23)cc1 | –
37 | -3.6 | -0.1 | CC(=O)NC(Cc1ccc(O)cc1)C(=O)O (stereo not given) | –
38 | 17.1 | 0 | Cc1ccc(C(=O)C2=C(O)C(=O)N(CCCC(=O)O)C2c2ccccc2F)cc1 (stereo not given) | –
39 | 16.6 | 1 | COc1ccc(C2C(C(=O)c3ccc(C)cc3)=C(O)C(=O)N2CCCC(=O)O)cc1OC (stereo not given) | –
40 | 4.9 | 1 | O=C(O)c1ccccc1C(=O)N(Cc1ccccc1)Cc1ccccc1 | –
41 | -0.8 | -0.8 | O=C(O)CC/C(=N/NC(=O)c1c[nH]c2ccccc12)c1ccccc1 | –
42 | – | -0.1 | COc1ccc(-c2ccc(C#N)c(SCC(=O)NCC(=O)O)n2)cc1 | –
43 | 18.2 | 0.2 | CCOC(=O)c1cnc2c(ccc3ccccc32)c1Nc1cccc(C(=O)O)c1 | –
44 | 25.8 | -0.3 | CN1C(=O)/C(=N/c2cccc(C(=O)O)c2)S/C1=C\c1cccs1 | –
45 | 3.4 | -0.1 | O=C(O)CCC(=O)Nc1ccccc1C(=O)N1CCCCCC1 | –
46 | 7.2 | 0.1 | O=C(O)c1ccc(S(=O)(=O)Nc2ccc(O)c(Sc3nc4ccccc4s3)c2)cc1 | –
47 | 70 | -2.8 | O=C(O)CSc1cc(NS(=O)(=O)c2ccc(Cl)cc2)c2ccccc2c1O | Ki [3]: 2300 nM
48 | -0.2 | -0.6 | O=C(CSc1ncccc1C(=O)O)c1ccc(O)c(O)c1 | –
49 | -3.2 | 0 | Cc1nc(=O)c(-c2ccccc2)c(C)n1CCCCCC(=O)O | –
50 | 39.5 | 0.3 | O=C(Nc1cc(Cl)ccc1Cl)/C(=N\Nc1ccccc1C(=O)O)C(=O)c1ccccc1 | Ki [3]: 10300 nM
51 | -1.9 | -0.2 | CCCCCC(=O)N(CN1C(=O)c2ccccc2C1=O)c1cccc(C(=O)O)c1 | –
52 | – | -2.4 | O=C(O)c1cccc(-c2ccc(CNC(Cc3c[nH]c4ccccc34)C(=O)O)o2)c1 (stereo not given) | –
53 | -2.5 | -2.6 | Cc1ccc(C(=O)/C(=C\Nc2cc(Cl)ccc2C(=O)O)c2nnnn2-c2ccc(C)cc2)cc1 | –
54 | -3 | 0 | Cc1ccc(-n2c(SCC(=O)Nc3c(C)cccc3C)nc(O)cc2=O)cc1 | –
55 | 31.4 | 0.1 | CCCOc1cc(S(=O)(=O)Nc2ccc(C(=O)O)cc2)ccc1Cl | Ki [3]: 4300 nM
56 | 18.5 | 0.1 | COc1ccc(CN(C(=O)COc2cc(C)ccc2C(C)C)c2ccccc2C(=O)O)cc1 | –

Source: ChEMBL document CHEMBL3826919, “The discovery of novel and selective fatty acid binding protein 4 inhibitors by virtual screening and biological evaluation” (Bioorg Med Chem, 2016)
